Measurements from ChEMBL document CHEMBL2074487, “Effects of 12 Ca2+ antagonists on multidrug resistance, MDR1-mediated transport and MDR1 mRNA expression” (Eur J Pharm Sci, 2002).
pIC50: −log10 of the molar value.

Each compound was assayed against ATP-dependent translocase ABCB1 (Homo sapiens, UniProt P08183) (assay: TP_TRANSPORTER: inhibition of Digoxin transepithelial transport (basal to apical) (Digoxin: 0.1 uM) in MDR1-expressing LLC-PK1 cells).
Type: functional, cell-based

Sequence of ATP-dependent translocase ABCB1 (P08183 whole entry): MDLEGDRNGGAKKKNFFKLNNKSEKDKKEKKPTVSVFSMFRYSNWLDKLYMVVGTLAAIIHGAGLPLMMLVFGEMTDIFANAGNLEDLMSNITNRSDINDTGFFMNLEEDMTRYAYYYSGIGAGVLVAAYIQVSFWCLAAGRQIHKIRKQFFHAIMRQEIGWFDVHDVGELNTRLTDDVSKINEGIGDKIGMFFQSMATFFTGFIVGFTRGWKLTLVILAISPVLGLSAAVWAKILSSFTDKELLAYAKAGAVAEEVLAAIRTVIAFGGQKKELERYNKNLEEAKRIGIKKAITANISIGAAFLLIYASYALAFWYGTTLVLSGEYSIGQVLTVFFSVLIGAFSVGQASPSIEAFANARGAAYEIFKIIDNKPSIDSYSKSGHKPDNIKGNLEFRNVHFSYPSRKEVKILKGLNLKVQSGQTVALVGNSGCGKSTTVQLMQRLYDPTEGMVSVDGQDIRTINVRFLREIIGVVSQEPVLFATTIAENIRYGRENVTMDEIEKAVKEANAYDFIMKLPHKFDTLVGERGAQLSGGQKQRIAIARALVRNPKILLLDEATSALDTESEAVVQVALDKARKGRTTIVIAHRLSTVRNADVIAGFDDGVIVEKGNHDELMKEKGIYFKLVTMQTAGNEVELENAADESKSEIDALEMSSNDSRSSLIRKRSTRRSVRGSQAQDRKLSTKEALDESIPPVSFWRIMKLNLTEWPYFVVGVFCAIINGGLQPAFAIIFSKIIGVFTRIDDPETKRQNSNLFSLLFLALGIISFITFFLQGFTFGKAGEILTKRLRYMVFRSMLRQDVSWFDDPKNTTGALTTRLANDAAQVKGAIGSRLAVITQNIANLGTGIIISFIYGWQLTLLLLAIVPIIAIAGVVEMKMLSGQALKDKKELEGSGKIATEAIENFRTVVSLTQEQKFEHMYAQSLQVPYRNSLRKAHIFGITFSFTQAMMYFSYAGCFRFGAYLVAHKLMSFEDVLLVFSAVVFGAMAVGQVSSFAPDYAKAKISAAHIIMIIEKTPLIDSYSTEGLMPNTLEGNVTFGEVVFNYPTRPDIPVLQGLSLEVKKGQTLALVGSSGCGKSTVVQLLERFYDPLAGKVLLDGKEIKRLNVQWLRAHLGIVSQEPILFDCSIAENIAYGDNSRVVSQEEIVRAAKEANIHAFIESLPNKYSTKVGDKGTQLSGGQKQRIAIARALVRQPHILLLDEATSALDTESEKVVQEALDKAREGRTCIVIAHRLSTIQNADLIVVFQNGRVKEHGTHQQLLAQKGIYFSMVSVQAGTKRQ

pIC50 | SMILES
5.30 | COC(=O)C1=C(C)NC(C)=C(C(=O)O[C@@H]2CCCN(Cc3ccccc3)C2)C1c1cccc([N+](=O)[O-])c1 (some centres not stated)
4.90 | COC(=O)C1=C(C)NC(C)=C(C(=O)O[C@H]2CCN(Cc3ccccc3)C2)[C@H]1c1cccc([N+](=O)[O-])c1 [BARNIDIPINE]
4.89 | CC1=C(C(=O)OCCN(Cc2ccccc2)c2ccccc2)C(c2cccc([N+](=O)[O-])c2)C(P2(=O)OCC(C)(C)CO2)=C(C)N1 (configuration not stated) [EFONIDIPINE]
4.74 | COC(=O)C1=C(C#N)NC(C)=C(C(=O)OC(C)C)C1c1cccc([N+](=O)[O-])c1 (configuration not stated) [NILVADIPINE]
4.36 | COC(=O)C1=C(C)NC(C)=C(C(=O)OCC(C)C)C1c1ccccc1[N+](=O)[O-] (configuration not stated) [NISOLDIPINE]
4.17 | CCOC(=O)C1=C(C)NC(C)=C(C(=O)OC)C1c1cccc([N+](=O)[O-])c1 (configuration not stated) [NITRENDIPINE]

SMILES | pIC50
COC(=O)C1=C(C)NC(C)=C(C(=O)OC)C1c1ccccc1[N+](=O)[O-] [NIFEDIPINE] | 3.33
